One may read the EC50 as the concentration that produces a half-maximal response. Read a low EC50 as an effect from little substance.

This assay has as its target NL-PRMT5 (NLuc-PRMT5) (Homo sapiens, UniProt O14744). Nature of the assay: NanoBRET target engagement, displacement of CBH-002. Type of assay: cell-based. Background: BRET reads energy transfer from a luciferase to a nearby fluorophore.

Sequence of NL-PRMT5 (NLuc-PRMT5) (O14744 2-637): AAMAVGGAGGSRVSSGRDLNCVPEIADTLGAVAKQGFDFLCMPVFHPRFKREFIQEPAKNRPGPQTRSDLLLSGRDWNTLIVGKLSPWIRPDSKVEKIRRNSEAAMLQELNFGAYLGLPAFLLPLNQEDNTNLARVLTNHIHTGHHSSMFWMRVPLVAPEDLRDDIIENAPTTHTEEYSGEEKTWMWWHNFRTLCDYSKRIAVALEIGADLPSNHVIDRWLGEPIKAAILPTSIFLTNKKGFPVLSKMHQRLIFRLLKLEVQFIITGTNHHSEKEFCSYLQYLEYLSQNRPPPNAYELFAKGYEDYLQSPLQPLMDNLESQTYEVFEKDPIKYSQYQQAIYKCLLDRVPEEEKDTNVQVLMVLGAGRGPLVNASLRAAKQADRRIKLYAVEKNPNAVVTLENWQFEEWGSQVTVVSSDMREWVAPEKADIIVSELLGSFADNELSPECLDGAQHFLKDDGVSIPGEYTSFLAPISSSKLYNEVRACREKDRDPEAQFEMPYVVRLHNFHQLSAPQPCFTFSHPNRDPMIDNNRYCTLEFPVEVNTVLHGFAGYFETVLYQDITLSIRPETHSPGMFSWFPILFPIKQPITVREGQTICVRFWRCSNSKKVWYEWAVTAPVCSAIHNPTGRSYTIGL

For the compound `Nc1ncnc2c1ccn2[C@@H]1O[C@H]([C@H](O)c2ccccc2)[C@@H](O)[C@H]1O` [LLY-283], the response was half-maximal at 0.3 ± 0.1 µM (EC50).

The values are drawn from article doi:10.1101/2022.01.20.477145v2 (biorxiv, 2022).
